Earlier results on one substance are cited in patent US12285483B2 (priority 2020, dated 2025).

The conditions of this series: pure solanesol, room temperature.

Turning to solanesol, the solubility in water result is recorded as “insoluble in water”.
